Source: patent US12319912B2, “MicroRNA expression promoting agent and food or beverage for promoting expression of microRNA” (Kewpie Corporation, priority 2019, dated 2025)

Experiments:
Assay type in all cases: in vivo, nude mice (BALB/c-nu/nu)
Conditions in all cases: 0.25% (w/w) pterostilbene in feed, MM-231-luc-D3H2LN tumors removed at 21 days, female nude mice
miR-141 = assay: Expression level of miR-141 in removed tumors after oral administration of pterostilbene-containing feed (quantitative RT-PCR)
Procedure: (§1) An animal feed for test (pterostilbene-containing powdery animal feed) was prepared by the following method. That is, first, 50 g of corn oil was weighed and heated to 70° C. Pterostilbene was added to the heated corn oil and was dissolved therein. Reagents other than corn oil and pterostilbene (other reagents) were ground in a mortar, and the mixture was mixed. The corn oil in which pterostilbene was dissolved was added to the mixture of other reagents, and the mixture was mixed by sufficiently grinding in a mortar. Subsequently, the mixture was further mixed with a stirrer for about 30 minutes, and thus an animal feed for test was prepared. […]
(§2) At a time point where one week had passed after grouping, the mice in each group were subjected to a cancer cell transplantation experiment. […] Confirmation of whether the cancer cells were transplanted was achieved by leaving the animals for a while after transplantation, intraperitoneally administering a 15 mg/ml luciferin solution (Beetle Luciferin, Potassium Salt, Promega Corporation) in an amount of 150 mg/kg, and measuring cell-derived luminescence (luciferase activity) with IVIS Spectrum (PerkinElmer, Inc.) after about 10 minutes. […] The body weights of the mice were measured in a timely manner. […] Then, luminescence was observed over time with IVIS spectrum every other week from the day of administration initiation. […]

miR-126 = assay: Expression level of miR-126 in removed tumors after oral administration of pterostilbene-containing feed (quantitative RT-PCR)
Procedure: as §1, §2

miR-200c = assay: Expression level of miR-200c in removed tumors after oral administration of pterostilbene-containing feed (quantitative RT-PCR)
Procedure: as §1, §2

miR-193b = assay: Expression level of miR-193b in removed tumors after oral administration of pterostilbene-containing feed (quantitative RT-PCR)
Procedure: as §1, §2

miR-16 = assay: Expression level of miR-16 in removed tumors after oral administration of pterostilbene-containing feed (quantitative RT-PCR)
Procedure: as §1, §2

let-7a = assay: Expression level of let-7a in removed tumors after oral administration of pterostilbene-containing feed (quantitative RT-PCR)
Procedure: as §1, §2

miR-34a = assay: Expression level of miR-34a in removed tumors after oral administration of pterostilbene-containing feed (quantitative RT-PCR)
Procedure: as §1, §2

COc1cc(/C=C/c2ccc(O)cc2)cc(OC)c1 [pterostilbene, Pterostilbene]
promoted: expression of miR-141 as compared to the control group (miR-141) | expression of miR-126 as compared to the control group (miR-126) | expression of miR-200c as compared to the control group (miR-200c) | expression of miR-193b as compared to the control group (miR-193b) | expression of miR-16 as compared to the control group (miR-16) | expression of let-7a as compared to the control group (let-7a) | expression of miR-34a as compared to the control group (miR-34a)
